Assay results reported in EP0486809A2, “Use of suramin against TNF-related diseases” (priority 1990, dated 1992).

What was measured:
human TNFa [1] = molecular target: T1, human TNFa (Homo sapiens, UniProt P01375); test: Inhibition by suramin of the cytotoxic activity of TNFa on actinomycin D-treated LM cells (MTT); type: cell-based; conditions: mouse LM cells treated with actinomycin D, measured the day after; Figure 5
Method: In the experiment depicted in Figure 5 different concentrations of human TNFa (Esquire) were incubated, in the absence or presence of different doses of suramin, with mouse LM cells treated with actinomycin D. Treatment with actinomycin D is known to render LM cells more sensitive to the cytotoxic activity of TNFa (Ruff, M.R. and Gifford, G.E., J. lmmunol. 125: 1671 (1980)). The cytotoxic activity of human TNFa was measured the day after.
Inhibition by suramin of the cytotoxic activity of TNF a on actinomycin D - treated LM cells.
The experimental design is similar to that for the assay on untreated LM cells.
The differences are as follows. • 1) 100 µl of a cell-suspension containing 3 x 10^5 cells/ml are added to each well of microtiter plates. • 2) Before setting up the TNFa-cytotoxicity assay, the cells are pretreated for 4 hours at 37 °C with complete MEM (100 µl/well) containing 2 µg/ml actinomycin D (Fluka). • 3) The cytotoxic activity of human TNF a is measured after an incubation period of 24 hours at 37 ° C.

human TNFa [2] = molecular target: T1, human TNFa; test: Inhibition by suramin of the cytotoxic activity of TNFa on untreated mouse LM cells (MTT); type: cell-based; conditions: measured after 2 days, Figure 6
Method: The experiments depicted in Figure 6 were similar to the experiments of Figure 5, except that actinomycin D was omitted from the incubation mixture. In this case the cytotoxic activity of human TNFa was measured after 2 days. […] The degree of inhibition was dependent on the activity of human TNFa employed, i.e. doses of human TNFa exerting high cytotoxic activity were less inhibitable than those exerting lower cytotoxic activity.
3) Inhibition by suramin of the cytotoxic activity of TNF a on untreated mouse LM cells.
On day O logarithmically growing mouse LM cells (Rubin, B.Y. et al. J. Exp. Med. 162 : 1099 (1985)) are trypsinized, centrifuged and resuspended at a final concentration of 5 x 10^4 cells/ml of Eagle's minimun essential medium supplemented with 5% FCS and 1% glutamine (complete MEM). […]
The plates are further incubated for 4 hours at 37 °C. Then, supernatants are discarded, 200 µl of dimethylsulfoxide (DMSO, Farmitalia Carlo Erba) are added to each well and the extent of color development is read on a plate ELISA reader at 570 nm. OD values obtained for each TNF a concentration and each TNFa-suramin mixture are expressed as percent (%) of those obtained for the controll wells containing only complete MEM and complete MEM plus each suramin dilution, respectively.

human TNFa [3] = molecular target: T1, human TNFa; test: Inhibition by suramin of the binding of iodinated human TNFa to K562 cells; design: purchased New England Nuclear (NEN), Wilmington, DE; conditions: for IC50: Figure 1, read-out: Inhibitory concentrations 50 (IC50)
Method: In the experiment depicted in Figure 1 suramin was mixed, at the indicated doses, with 2.5 x 10^-11M, 10^-10M, or 4 x 10^-10M iodinated human TNFa - (New England Nuclear, NEN, Wilmington, DE). The mixtures were then added immediately to K562 cells. The residual binding of TNF a was measured and compared to the binding to K562 cells in the absence or presence of a 100-fold higher dose of "cold" unlabeled human TNFa (Esquire Chemie AG, Zuerich, Switzerland). […] Higher doses of suramin are required to inhibit the binding of higher doses of iodinated TNFa. […]
1) Inhibition by suramin of the binding of iodinated human TNF a to K562 cells.
lodinated human TNFa (NEN, specific activity = 30 - 70 µCi/µg protein) is diluted so to have concentrations of 1.6 x 10-^9 M, 4 x 10^-10M and 10^-10M in RPMI 1640 medium (Flow, Opera, Italy) supplemented with 2% foetal calf serum (FCS, PBI, Milan, Italy) and 14 mM Hepes (Flow). This medium will hereon be referred to as binding medium (BM). "Cold" unlabeled human TNF a (Esquire) is diluted in BM so to have concentrations of 1.6 x 10^-7M, 4 x 10-^8 M and 10^-8M. Suramin (Bayer, Leverkusen, FRG) is dissolved in BM so to have a concentration of 4 mM. Starting from this solution a series of dilutions are set up in BM.
K562 cells (human chronic myelogenous leukemia, ATCC CCL243) are adjusted to a concentration of 2 x 10^6/ml in BM. 100 µl of the cell suspension are then incubated with 50 µl of each iodinated TNFa concentration and with 50 µl BM or 50 µl of a 100 fold higher concentration of "cold" TNF a or 50 µl of each suramin dilution. The mixtures are incubated for 4 hours at […]. Thereafter the cells are centrifuged through a phthalate-dibutyl phthalate oil mixture (1:1,5 vol/vol, Fluka AG, Buchs, Switzerland). Cell-associated radioactivity is determined in a gamma-counter. Data thus obtained are processed by means of an equilibrium binding data analysis program (EBDA, Elsevir Science Publishers, Amsterdam, Netherlands). […]

human TNFa [4] = molecular target: T1, human TNFa; test: Inhibition by suramin of the binding of iodinated human TNFa to LM cells; design: purchased New England Nuclear (NEN), Wilmington, DE; conditions: binding of 3 x 10^-10M human TNFa to mouse LM cells; Figure 2
Method: The mixtures were then added to mouse LM cells. The residual binding of TNFa was measured and compared to the binding to LM cells in the absence or presence of a 100-fold higher dose of "cold" unlabeled human TNFa. […] For the binding assay, 24-well plates (Costar, Vis- mara Associate, Trezzano sul Naviglio, Italy) are used, that have been seeded the day before with mouse LM cells (Rubin, B.Y. et al. J. Exp. Med. 162: 1099 (1985)), 200.000 cells/well. The medium is discarded and replaced with 100 µl BM supplemented with 0.04% Na N3, 50 µl iodinated human TNF a and 50 µl BM or 50 µl cold TNF a or 50 µl of each suramin dilution. After 4 hours at 4°C cells are washed 4 x with BM, solubilized with 2% SDS and cell-associated radioactivity is determined. Data are processed as described before.

T1 sequence (P01375 77-233 limits assumed): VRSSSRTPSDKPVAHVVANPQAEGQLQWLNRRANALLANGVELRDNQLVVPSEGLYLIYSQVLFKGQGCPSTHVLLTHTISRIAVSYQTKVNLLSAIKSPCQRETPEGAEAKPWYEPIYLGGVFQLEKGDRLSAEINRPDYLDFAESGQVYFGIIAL

- IC50 (human TNFa [3]; binding of 2.5 x 10-"M human TNFa to human K562 cells): 78 µM
- IC50 (human TNFa [3]; binding of 4 x 10-'°M human TNFa to human K562 cells): 180 µM
- IC50 (human TNFa [3]; binding of 10^-10M human TNFa to human K562 cells): 126 µM
- inhibition of the binding of TNFa to K562 (human TNFa [3]; sequential addition of suramin and 10^-10M TNFa, K562 cells washed in between, Figure 4): no inhibition
- IC50 (human TNFa [4]): 175 µM
SMILES: Cc1ccc(C(=O)Nc2ccc(S(=O)(=O)O)c3cc(S(=O)(=O)O)cc(S(=O)(=O)O)c23)cc1NC(=O)c1cccc(NC(=O)Nc2cccc(C(=O)Nc3cc(C(=O)Nc4ccc(S(=O)(=O)O)c5cc(S(=O)(=O)O)cc(S(=O)(=O)O)c45)ccc3C)c2)c1 [suramin, 8,8' - (carbonylbis(imino-3,1-phenylenecarbonylimino (4-methyl-3,1-phenylene)carbonylimino)) bis-1,3 ,5-naphthalenetrisulfonic acid]
- inhibition of the cytotoxic activity of human TNFa (human TNFa [1]): inhibited, in a dose- dependent manner
- inhibition of the cytotoxic activity of human TNFa (human TNFa [2]): inhibited, in a dose- dependent manner
